Measured values published in patent EP4089103A1, “CLPCP PROTEASE-BINDING CYCLIC HEPTAPEPTIDES” (priority 2021, dated 2022).

Experiments:
[1] = test system: BRDTBD1 expressed in M. smegmatis cells; test: In vivo degradation assay in live mycobacteria, capillary western (Wes); assay type: cell-based, M. smegmatis mc^2-155; conditions: 100 µM, 10 µM or 1 µM BacPROTAC-3, 100 µM sCym-1 or 100 µM JQ1; 2 hours incubation; Figure 3
Description: After validating the activity of the compound Cym_bacPROTAC_3 in vitro, the compound was investigated in an in vivo degradation assay in a cellular environment. For the in vivo degradation assay Msm cells stably expressing BRDTBD1 were used. The culture was treated with the compound Cym_bacPROTAC_3 or alternatively, the individual building blocks sCym-1 and JQ1. After two hours incubation, BRDTBD1 levels were quantified using capillary western as detailed below.
A stationary culture of M. smegmatis mc^2-155 carrying a plasmid BRDTBD1 expression was diluted 1:200 in 50 mL 7H9 medium supplemented with 50 µg/mL hygromycin. The culture was grown at 37 °C with vigorous shaking to an OD600 of ∼1. Expression of BRDTBD1 was then induced by addition of 200 µL 50% acetamide in H2O. […]
The amounts of BRDTBD1 in the lysates were quantified using Wes (ProteinSimple), a capillary electrophoresis-based western blot technology. Bacterial lysates were diluted 2-fold and analysed using the 12-230 kDa Wes Separation Module (Protein simple, SM-W004) following the manufacturer's instructions. […] BRDTBD1 was detected using the Anti-Rabbit Detection Module for Wes (ProteinSimple, DM-001), which includes a peroxidase-conjugated secondary antibody and a chemiluminescent substrate. Results were analysed using the Compass for SW software (ProteinSimple). […]

[2] = test system: mycobacterial proteome (2912 proteins) incl. BRDTBD1; test: Selectivity of protein degradation, TMT mass spectrometric analysis of Msm lysates; assay type: cell-based, M. smegmatis; conditions: TMT MS, triplicate analysis, Figure 4
Description: To address this point, a tandem mass tag (TMT) mass spectrometric (MS) analysis of Msm lysates was performed.
Thus, the TMT MS analysis provides compelling evidence that the compound Cym_bacPROTAC_3 is capable of inducing degradation of the BRDTBD1 substrate in a highly specific and efficient manner.

Cc1sc2c(c1C)C(c1ccc(Cl)cc1)=N[C@@H](CC(=O)OC(C)(C)C)c1nnc(C)n1-2 [JQ1]
BRDTBD1 levels after treatment [1]: did not affect BRDTBD1 levels | change in protein abundance versus vehicle (DMSO) [2]: did not affect BRDTBD1 levels and did also not cause global effects
